Assay results: patent US20020115117A1, “ERbeta-mediated gene expression” (priority 2000, published 2002)
Where no end group is shown, it is not given here.

Assays:
PC-3 M cells = assay: Cell growth inhibition by Raloxifene and Resveratrol, PC-3 M; format: cell-based, human
From the text: (§1) Raloxifene® and Resveratrol® may also be active tumor suppressing agents utilizing the ERβ pathways. […] Treatment protocols and dosages used were similar to those described above.

DU145 = assay: Cell growth inhibition by Raloxifene and Resveratrol, DU145; format: cell-based, human
From the text: as §1

DU145 cells [1] = assay: Cell growth of DU145 cells, trypan blue exclusion count; format: cell-based, human; conditions: for effect on cell growth: 4-day exposure, vs vehicle control; for reduction in the cell numbers: 1 μM, 4 days, vs vehicle (absolute ethanol) control
Experimental: FIGS. 2A-2D are graphs summarizing data on effects of antiestrogens and estrogens on cell growth of DU145 cells. Cells (5×10^3 cells per well) were plated in triplicate wells onto a 24-well plate. After 24 hours for cell attachment, cells were treated for 4 days with antiestrogens [(A) ICI and (B) 4OH-TAM] or estrogens [(C) 17β-estradiol and (D) DES] at various concentrations as indicated. Cells treated with vehicle (absolute ethanol) were used as control. The number of viable cells at the end of 4 days of treatment was determined by the trypan blue exclusion method. Three individual experiments were performed. (Columns, means; bars, S.D.; n=9; *, p<0.001 compared to control (shaded column).
(§2) Cells were seeded at a density of 5×10^3 per ml into 24-well plates (Falcon, Becton Dickinson Labware, Lincoln Park, N.J.) in a final volume of 1 ml culture medium with 5% charcoal-stripped FBS. Twenty-four hours following seeding, triplicate wells of cells were treated in with 1 μM, 10 μM and 100 μM of estradiol-17β (E2), diethylstilbestrol (DES), 4′-hydroxytamoxifen (4OH-TAM) or ICI 182,780 (ICI). E2, DES, and 4OH-TAM were purchased from Sigma Co. (St. Louis, Mo.) and ICI was a gift from Zeneca Pharmaceuticals (Macclesfield, United Kingdom). Estrogens and antiestrogens were dissolved in absolute ethanol (Sigma Co., St. Louis, Mo.) and added to the media daily. Cell cultures not treated with estrogenic compounds received absolute ethanol as a vehicle control. Total additive ethanol concentrations never exceeded 0.2% throughout the culture period. The cells were re-fed with freshly prepared medium every other day. At the end of a 4-day treatment period, cells in each well were trypsinized and cell count determined by direct counting using the Trypan blue exclusion method. All treatment experiments were repeated at least three times to generate statistically relevant data.

PC-3 cells = assay: Cell growth of PC-3 cells, trypan blue exclusion count; format: cell-based, human
Experimental: FIGS. 3A-3D are graphs summarizing data on effects of antiestrogens and estrogens on cell growth of PC-3 cells. Cell growth assay was described in […]. (A) ICI. (B) 4OH-TAM. (C) 17β-estradiol. (D) DES. Columns, means; bars, S.D.; n=9; * ,p<0.001; #, p<0.01; +, p<0.05; compared to control (shaded column).
as §2

recombinant ERβ protein = assay: Competitive inhibition ELISA of GC-17 antibody; format: binding, human; conditions: peptide pre-incubated with GC-17 (1:6000); ERβC 4 mg-4 μg/ml, ERβN 4 mg/ml
Experimental: FIG. 5 is a graphic representation of the results of a competitive ELISA assay and illustrates the concentration-dependent competition of the immunizing peptide (ERβC) with a GC-17 antibody. […] The GC-17 antibodies, bound to recombinant ER-β protein on ELISA plates, were recognized by alkaline phosphatase conjugated anti-rabbit IgG antibodies. The whole complexes were visualized by incubation with p-nitrophenyl phosphate. The optical density at 405 nm was measured. The entire assay was done 4 times. The columns represent the standard deviation. w/o=GC-17 preincubated without peptide antigen.
The wells of an ELISA plate, PRO-BIND™ (Becton-Dickenson Labware, Franklin, N.J.) were coated with a recombinant protein composed of the entire ERβ sequence (PanVera, Madison, Wis.) at a concentration of 5 μg/ml. The GC17 antibody (1:6000) was then pre-incubated with the immunizing peptide at concentrations ranging from 4 mg-4 μg/ml at room temperature for 30 minutes. In addition, 4 mg of a control peptide encompassing sequences in the N-terminal region of ER-β (Research Genetics) was preincubated with the GC 17 antibody (1:6000) at room temperature for 1 hour. […] Results were quantified by optical density using the Microplate reader 550 (Bio-Rad, Richmond, Calif.). […]

ERβ = assay: Competitive immunohistochemistry with GC-17 antibody; format: cell-based, human; conditions: sections of DU145 and LNCaP cells, 400 μg/ml or 40 μg/ml peptide
From the text: These cells were used to compliment and confirm that the GC-17 antibody reagent specifically detected ERβ but not ERα by immunohistochemical staining. Using the GC-17 antibody and the anti-ERα antibody (NCL-ER-6F11, Novacastra, Newcastle, UK) at the same dilutions as for tissue sections (see below), we carried out immunohistochemical studies on 10% formalin-fixed cytospins of DU145 and LNCaP cells that had been routinely processed, embedded in paraffin, sectioned at 5 μm and mounted on SuperFrost Plus™ slides (VWF Scientific, West Chester, Pa.).
Peptide competition studies were performed at the immunohistochemical level that approximated the conditions used in the ELISA assays described above. GC-17 antibody, at a dilution of 1:6000, was incubated with the immunizing ERβ peptide at concentrations of 400 μg and 40 μg at room temperature for 1 hour. In addition, competitive studies were conducted using ERα recombinant peptide (400 and 40 μg, Affinity Bioreagents Inc., Golden, Colo.) on DU145 cells. Incubation conditions and time were identical to those used for the ERβ peptide competition studies. Deparaffinized sections of DU145 and LNCaP cells and human prostate tissue were then incubated with these mixtures at room temperature for 1 hour. […]

DU145 cells [2] = assay: cDNA expression array of DU145 cells treated with ICI 182,780; format: cell-based, human; conditions: DU145, 12 hours
Experimental: cDNA array technology was used to identify genes whose expression is modulated by ICI 182,780 in DU145 cells. The DU-145 cells were treated for 12 hours with ICI 182,780, and total RNA was then isolated from treated cells and untreated controls. Following poly-(A)-RNA selection of these two population of total RNA, and DNase I digestion to remove contaminating DNA, the poly (A)-RNA pools were reversed-transcribed in the presence of P32 to produce radiolabeled cDNA probes. These radiolabeled cDNA probes were applied to an Atlas™ cDNA Expression Array (600 gene array, Clontech Laboratories, Inc, Palo Alto, Calif.) using the vendor's recommended protocol.

DU145 cells [3] = assay: ICI-induced DU145 cell growth inhibition with ERβ antisense, sense or mismatch ODN; format: cell-based, human; conditions: ICI 1 μM, 4 days, no ODN
Experimental: FIG. 4 is a graph summarizing data on reduction of ICI-induced inhibition of DU145 cell growth by ERβ antisense oligonucleotide (ODN). Cells were treated with ICI at 10^−6 M for 4 days in the presence of 2.5 μM antisense, sense or mismatch ODNs. Columns, means; bars, S.D.; n=16; *,p<0.001 compared to control without ODN treatment.
DU145 cells (5×10^3 cells per well) were plated in 24 well-plates (Falcon, Becton Dickinson Labware, Lincoln Park, N.J.). After allowing 24 hours for cell attachment, cell cultures were treated in triplicate with 1 μM ICI in the presence of 2.5 μM ERβ antisense, sense or mismatch ODNs for 4 days. The ERβ antisense ODN, an 18-mer, was designed to recognize the first translation start site on the ERβ mRNA and its immediate 5′flanking region (Table 2, below). The nucleotide sequence of sense ODN is complementary to those of ERβ antisense ODN (Table 2). Based on the sequence of ERβ antisense ODN, 5 nucleotides were scrambled to generate a mismatch ODN that retains the same GC ratio of the ERβ antisense ODN (Table 2). Both the sense and the mismatch ODNs served as controls for the antisense ODN. In all three ODNs, the first and the last 3 nucleotides were phosphorothioate-modified to increase their stability in cellulo. Number of viable cells in each well was determined by direct counting using the Trypan blue exclusion method after a 4-day treatment period. […]

Question: Which results are given for O=C(c1ccc(OCCN2CCCCC2)cc1)c1c(-c2ccc(O)cc2)sc2cc(O)ccc12 [Raloxifene]?
Answer: efficacy compared (PC-3 M cells): markedly better than that of Resveratrol and ICI; inhibition of cell growth (PC-3 M cells): marked inhibition of cell growth; efficacy compared (DU145): markedly better than that of Resveratrol and ICI; inhibition of cell growth (DU145): marked inhibition of cell growth

Question: Which “effect on cell growth” value (DU145 cells [1]) does the source give for CC/C(=C(/CC)c1ccc(O)cc1)c1ccc(O)cc1 [DES, diethylstilbestrol] here?
Answer: did not affect cell growth

Question: What about the “effect on cell growth” value (PC-3 cells; various concentrations) of the same compound?
Answer: did not elicit statistically significant cell growth inhibition

Question: Oc1ccc(C=Cc2cc(O)cc(O)c2)cc1 [Resveratrol] was tested. Which “inhibition of cell growth” value (PC-3 M cells) did it give?
Answer: marked inhibition of cell growth

Question: What about the “inhibition of cell growth” value (DU145) of the same compound?
Answer: marked inhibition of cell growth

Question: Which results are given for C[C@]12CC[C@@H]3c4ccc(O)cc4CC[C@H]3[C@@H]1CC[C@@H]2O [E2, estradiol-17β]?
Answer: effect on cell growth (DU145 cells [1]): did not affect cell growth; effect on cell growth (PC-3 cells; 1 μM, p<0.05): induced inhibition of cell growth; effect on cell growth (PC-3 cells; 10 μM, p<0.01): induced inhibition of cell growth

Question: Which “suppression of GC-17 binding to the recombinant protein” value (recombinant ERβ protein) does the source give for “ERβC: immunizing peptide, C-terminus of ERβ (amino acids 449-465), 4-branch Multiple Antigenic Peptide (QQQSMRLANLLMLLSHV; also: 4-branch Multiple Antigenic Peptide)” here?
Answer: successfully suppressed binding

Question: What about the “effect on nuclear staining by GC-17” value (ERβ) of the same compound?
Answer: totally abolished nuclear staining

Question: How did the “reduction in the cell numbers” value (DU145 cells [1]) turn out when C[C@]12CC[C@@H]3c4ccc(O)cc4C[C@@H](CCCCCCCCC[S+]([O-])CCCC(F)(F)C(F)(F)F)[C@H]3[C@@H]1CC[C@@H]2O (stereo partly drawn) [ICI 182,780] was run?
Answer: 40%

Question: And the “effect on cell growth” value (DU145 cells [1])?
Answer: dose-dependent inhibition of cell numbers

Question: What about the “Fold difference relative to control” value (DU145 cells [2]; gene: 5-hydroxytryptamine A1 receptor (E4h)) of the same compound?
Answer: +6.6

Question: What about the “Fold difference relative to control” value (DU145 cells [2]; gene: BCL-2 related A1 protein (BFL-1)(C4H)) of the same compound?
Answer: +9.6

Question: And the “Fold difference relative to control” value (DU145 cells [2]; gene: Embryonic growth/differentiation factor (GDF-1))?
Answer: +4.5

Question: And the “Fold difference relative to control” value (DU145 cells [2]; gene: IFN-α/β receptor)?
Answer: +2.7

Question: And the “Fold difference relative to control” value (DU145 cells [2]; gene: Interleukin-12 alpha chain (IL-12)(F6K))?
Answer: +10.6

Question: And the “Fold difference relative to control” value (DU145 cells [2]; gene: RYK receptor-like tyrosine kinase (E2c))?
Answer: +3.6

Question: What about the “Fold difference relative to control” value (DU145 cells [2]; gene: TL1309) of the same compound?
Answer: +2.7

Question: And the “reduction in cell number” value (DU145 cells [3])?
Answer: 40%

Question: How did the “reduction in the cell numbers” value (DU145 cells [1]) turn out when CC/C(=C(\c1ccccc1)c1ccc(OCCN(C)C)cc1)c1ccc(O)cc1 [4OH-TAM, 4′-hydroxytamoxifen] was run?
Answer: around 25%
